# Measured values published in PubChem BioAssay (NCI).
#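 Following 48 hours of exposure in 96-well plates, responses at five concentrations were used to interpolate endpoints linearly. GI50 is the concentration that inhibits growth by half. TGI marks complete inhibition of growth.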
# Assays:
# Assay in all cases: NCI anticancer screen, dose series, 48 h
# UACC-257 melanoma = test system: UACC-257 melanoma
# COLO 205 colon = test system: COLO 205 colon
# SR leukemia = test system: SR leukemia
# SF-268 CNS = test system: SF-268 CNS
# RPMI-8226 leukemia = test system: RPMI-8226 leukemia
# CCRF-CEM leukemia = test system: CCRF-CEM leukemia
# HCT-116 colon = test system: HCT-116 colon
# SNB-75 CNS = test system: SNB-75 CNS
# NCI-H226 lung = test system: NCI-H226 lung
# UACC-62 melanoma = test system: UACC-62 melanoma
SMILES,TGI (UACC-257 melanoma),TGI (COLO 205 colon),TGI (SR leukemia),TGI (SF-268 CNS),TGI (RPMI-8226 leukemia),TGI (CCRF-CEM leukemia),TGI (HCT-116 colon),TGI (SNB-75 CNS),TGI (NCI-H226 lung),TGI (UACC-62 melanoma),GI50 (UACC-257 melanoma),GI50 (COLO 205 colon),GI50 (SR leukemia),GI50 (SF-268 CNS),GI50 (RPMI-8226 leukemia),GI50 (CCRF-CEM leukemia),GI50 (HCT-116 colon),GI50 (SNB-75 CNS),GI50 (NCI-H226 lung),GI50 (UACC-62 melanoma)
Nc1ccn(C2CC3OCC3O2)c(=O)n1 (centres undefined),> 100 µM,> 100 µM,> 100 µM,> 100 µM,> 100 µM,> 100 µM,> 100 µM,> 100 µM,> 100 µM,> 100 µM,,,,,,,,,,
CC(CC(=O)Nc1ccc(NC(=O)CC(C)N=NC(N)=O)cc1)N=NC(N)=O (centres undefined),> 100 µM,> 100 µM,48.4 µM,> 100 µM,> 100 µM,> 100 µM,> 100 µM,> 100 µM,> 100 µM,> 100 µM,,,,,,,,,,
O=C(CCc1cc(-c2ccc(F)cc2)n[nH]1)N(Cc1ccccc1)Cc1ccccc1,> 100 µM,> 100 µM,81.1 µM,> 100 µM,> 100 µM,> 100 µM,> 100 µM,> 100 µM,> 100 µM,> 100 µM,,,,,,,,,,
COc1cc2c(=O)n(CC3CCCCC3)c3c4cc[nH]c4ncc3c2cc1OC,> 50 µM,11.7 µM,> 50 µM,13.9 µM,> 50 µM,> 50 µM,12.3 µM,1.9 µM,17.2 µM,> 50 µM,23.8 µM,1.67 µM,0.313 µM,1.4 µM,3.1 µM,2.54 µM,1.01 µM,0.209 µM,0.0556 µM,6.01 µM
CN(C)CCOc1ccc2c(c1)C(=O)/C(=C\c1ncc([N+](=O)[O-])n1C)C2,3.19 µM,0.628 µM,0.96 µM,3.11 µM,14.4 µM,> 100 µM,1.28 µM,1.98 µM,3.7 µM,2.49 µM,0.917 µM,0.25 µM,0.416 µM,0.489 µM,2.14 µM,1.39 µM,0.316 µM,0.474 µM,1.31 µM,0.851 µM
CCCCCCCCc1cc(O)ccc1O,56.7 µM,68.7 µM,50.8 µM,31.3 µM,48.5 µM,33.3 µM,27.9 µM,47.3 µM,41.7 µM,26.6 µM,18.6 µM,30.1 µM,15 µM,14.1 µM,10.5 µM,4.09 µM,14.7 µM,13.3 µM,17.3 µM,13.6 µM
NC(=O)c1nc(-c2ccc(Cl)c(Cl)c2)nc2ccccc12,> 100 µM,> 100 µM,> 100 µM,> 100 µM,> 100 µM,> 100 µM,> 100 µM,11.7 µM,> 100 µM,> 100 µM,,,,,,,,,,
COC(=O)C(/C(=N\O)C(=O)Nc1ccc(Br)cc1)c1nc2ccccc2[nH]c1=O (centres undefined),> 100 µM,37.5 µM,40.5 µM,> 100 µM,61.6 µM,72.9 µM,> 100 µM,> 100 µM,71.9 µM,73.1 µM,,,,,,,,,,
CS(=O)(=O)CCNCc1ccoc1-c1ccc2ncnc(Nc3ccc(OCc4ccccc4)cc3)c2c1,> 25 µM,> 25 µM,> 25 µM,> 25 µM,> 25 µM,> 25 µM,> 25 µM,> 25 µM,> 25 µM,> 25 µM,> 25 µM,24.8 µM,> 16.9 µM,> 25 µM,> 25 µM,17.7 µM,> 25 µM,> 7.41 µM,> 25 µM,> 25 µM
CCN(CC)CCNc1ccc([N+](=O)[O-])c2nc3ccc(OC)cc3c(N)c12,3.97 µM,1.65 µM,0.972 µM,3.63 µM,0.704 µM,1.31 µM,0.284 µM,3.64 µM,4.41 µM,3.61 µM,,,,,,,,,,
COc1ccc(/C=C/C(=O)c2ccc(Nc3nc(Nc4ccc(F)cc4)nc(Nc4ccc(F)cc4)n3)cc2)cc1,76.4 µM,29.6 µM,51.6 µM,94.6 µM,> 100 µM,48.2 µM,18.3 µM,> 100 µM,65.7 µM,> 100 µM,19 µM,9.57 µM,4.66 µM,22.5 µM,6.66 µM,5.15 µM,4.82 µM,30.6 µM,19.8 µM,29.9 µM
CC1=CC(=O)N2C(OC[C@@H]2c2ccccc2)O1 (some centres undefined),> 100 µM,> 100 µM,> 100 µM,> 100 µM,> 100 µM,> 100 µM,> 100 µM,> 100 µM,> 100 µM,> 100 µM,,,,,,,,,,
CCOC(=O)C(=O)Nc1nc2ccc(C)cc2s1,> 100 µM,> 100 µM,> 100 µM,> 100 µM,> 100 µM,> 100 µM,> 100 µM,> 100 µM,> 100 µM,> 100 µM,,,,,,,,,,
CCC(C)N1CN(c2ccccc2)C2(CCN(CCCC3(c4ccc(F)cc4)OCCO3)CC2)C1=O (centres undefined),4.24 µM,16.8 µM,23.5 µM,48.5 µM,4 µM,15.3 µM,24.9 µM,19.8 µM,32.7 µM,> 55.2 µM,,,,,,,,,,
CC/C(C)=C1\CCC(CN(C)C)C1=O (centres undefined),31.4 µM,,43.2 µM,43.2 µM,17.1 µM,39.8 µM,31.7 µM,30.1 µM,> 100 µM,> 100 µM,,,,,,,,,,
COC(=O)c1cc(C)[nH]c2c(C)cc3nc4ccccc4c3c12,30 µM,25.8 µM,58.2 µM,23.8 µM,46.9 µM,86.4 µM,23 µM,21 µM,28.9 µM,21.1 µM,16.1 µM,12.7 µM,6.13 µM,11 µM,5.75 µM,5.23 µM,10.2 µM,8.5 µM,14 µM,5.99 µM
N#CNC1=NCCC(=O)N1CCc1c[nH]c2ccccc12,> 100 µM,> 100 µM,> 100 µM,> 100 µM,> 100 µM,> 100 µM,> 100 µM,> 100 µM,> 100 µM,> 100 µM,,,,,,,,,,
